The text below walks through data of US20240285780A1 (priority 2020, published 2024).

In test [1] the test system is neuroblastoma-derived cell line (SH-SY5Y). It counts as cell-based.
Test [2] has as its system Sprague-Dawley rats. The note with it: rat, in vivo.
The subject of test [3] is collagen type I alpha 1 (Col1a1). It counts as cell-based, mouse.
Test [4] concerns Fibronectin. The test is classed as cell-based, mouse.
In test [5] the test system is Elastin. The test is classed as cell-based, mouse.

Where “and” joins values, the source holds several entries; their conditions need not be identical. Equal values may be shown once. Where a SMILES comes first, the peptide text is derived from it. [ ]: non-standard residue; d: D form. The star is where a group is joined. Trolox = Cc1c(C)c2c(c(C)c1O)CCC(C)(C(=O)*)O2; Cha = N[CH](CC1CCCCC1)C(=O)O

Regarding `CCC(C)C(NC(=O)C(CC(C)C)NC(=O)C(CC1CCCCC1)NC(=O)C(CCCCN)NC(=O)C1(C)CCc2c(C)c(O)c(C)c(C)c2O1)C(=O)NC(CCCCN)C(=O)O` (stereo not drawn) [trolox-peptide conjugate] (Trolox-K[Cha]LIK-OH; configuration not given here), the release of acetylcholine result in test [1] is listed as “significantly inhibited”. Moreover, in test [2], the “DAS Score” value was 4 and 2 and 3; the “duration of the muscle relaxation effect” value is recorded as “lasted longer”. Besides, the “expression level of collagen (Col1a1)” value in test [3] is recorded as “significantly increased”. Moreover, the “expression level of fibronectin” value in test [4] is on record as “significantly increased”. Also, the “expression level of elastin” value in test [5] was “significantly increased”.
